In patent US7045532B2 (Millennium Pharmaceuticals, Inc., priority 1999, dated 2006):
Like-named read-outs stand apart in the source and are kept apart here.

Tests used:
[1] = target: T1, ACE-2 (Homo sapiens, UniProt Q9BYF1); experiment: ACE-2 Competitive Substrate Assay (ACS Assay); assay type: biochemical
T1 construct: a stop codon inserted after the serine immediately preceding the transmembrane domain; made in house; host or cells: CHO K1 cells (transient transfection, purified from conditioned medium)
T1 sequence (Q9BYF1 18-740 limits assumed): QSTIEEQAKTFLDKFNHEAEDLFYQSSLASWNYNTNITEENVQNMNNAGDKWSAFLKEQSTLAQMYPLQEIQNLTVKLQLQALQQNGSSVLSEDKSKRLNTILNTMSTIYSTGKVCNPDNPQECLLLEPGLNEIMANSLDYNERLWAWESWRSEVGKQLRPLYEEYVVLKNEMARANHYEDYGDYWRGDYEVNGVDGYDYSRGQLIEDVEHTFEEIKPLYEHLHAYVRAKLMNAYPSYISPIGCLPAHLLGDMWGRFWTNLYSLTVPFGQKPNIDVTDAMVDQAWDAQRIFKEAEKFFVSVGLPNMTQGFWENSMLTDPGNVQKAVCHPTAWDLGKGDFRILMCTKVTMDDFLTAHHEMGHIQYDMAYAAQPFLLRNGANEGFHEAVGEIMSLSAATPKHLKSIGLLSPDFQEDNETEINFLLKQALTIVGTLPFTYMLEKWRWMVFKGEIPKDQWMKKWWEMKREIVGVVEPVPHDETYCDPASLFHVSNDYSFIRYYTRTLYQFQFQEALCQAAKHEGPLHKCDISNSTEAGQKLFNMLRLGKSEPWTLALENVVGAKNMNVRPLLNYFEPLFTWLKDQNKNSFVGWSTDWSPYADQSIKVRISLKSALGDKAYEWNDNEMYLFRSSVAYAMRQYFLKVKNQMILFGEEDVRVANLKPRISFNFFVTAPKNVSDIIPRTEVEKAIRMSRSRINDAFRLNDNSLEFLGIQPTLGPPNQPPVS

[2] = target: ACE-2 (Rattus norvegicus, UniProt Q5EGZ1); experiment: ACE-2 Competitive Substrate Assay, rat ACE-2; assay type: biochemical; settings: Ki class, compounds tested in 5% DMSO
Chain of ACE-2 (Rattus norvegicus, UniProt Q5EGZ1) (Q5EGZ1 18-805): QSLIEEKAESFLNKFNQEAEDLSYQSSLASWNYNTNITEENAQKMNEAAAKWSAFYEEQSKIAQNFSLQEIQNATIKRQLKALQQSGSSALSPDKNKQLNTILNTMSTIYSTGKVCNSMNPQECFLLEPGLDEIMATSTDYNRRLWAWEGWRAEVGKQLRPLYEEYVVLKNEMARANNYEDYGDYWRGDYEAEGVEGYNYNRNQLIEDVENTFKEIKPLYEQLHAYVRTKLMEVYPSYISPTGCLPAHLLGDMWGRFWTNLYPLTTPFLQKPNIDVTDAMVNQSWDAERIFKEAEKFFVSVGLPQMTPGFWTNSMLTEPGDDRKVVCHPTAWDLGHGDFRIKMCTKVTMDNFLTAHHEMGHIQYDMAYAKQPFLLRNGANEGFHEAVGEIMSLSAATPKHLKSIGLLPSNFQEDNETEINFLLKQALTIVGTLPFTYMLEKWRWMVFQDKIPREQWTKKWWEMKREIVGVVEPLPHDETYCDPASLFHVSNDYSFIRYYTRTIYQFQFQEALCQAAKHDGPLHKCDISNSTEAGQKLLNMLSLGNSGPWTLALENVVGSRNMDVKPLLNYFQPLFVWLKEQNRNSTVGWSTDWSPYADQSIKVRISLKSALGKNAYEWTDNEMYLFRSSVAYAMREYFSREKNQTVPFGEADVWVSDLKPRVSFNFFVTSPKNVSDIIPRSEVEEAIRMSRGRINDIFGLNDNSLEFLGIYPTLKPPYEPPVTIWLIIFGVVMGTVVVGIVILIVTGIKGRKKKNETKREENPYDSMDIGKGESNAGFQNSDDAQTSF

[3] = target: T2, ACE (Sigma, A2580) (Sus scrofa, UniProt F1RRW5); experiment: ACE enzymatic activity assay; assay type: biochemical, porcine; settings: Ki class, compounds tested in 5% DMSO
T2 construct: ACE from porcine kidney; purchased Sigma A2580; host or cells: porcine kidney
T2 sequence (F1RRW5 34-1309): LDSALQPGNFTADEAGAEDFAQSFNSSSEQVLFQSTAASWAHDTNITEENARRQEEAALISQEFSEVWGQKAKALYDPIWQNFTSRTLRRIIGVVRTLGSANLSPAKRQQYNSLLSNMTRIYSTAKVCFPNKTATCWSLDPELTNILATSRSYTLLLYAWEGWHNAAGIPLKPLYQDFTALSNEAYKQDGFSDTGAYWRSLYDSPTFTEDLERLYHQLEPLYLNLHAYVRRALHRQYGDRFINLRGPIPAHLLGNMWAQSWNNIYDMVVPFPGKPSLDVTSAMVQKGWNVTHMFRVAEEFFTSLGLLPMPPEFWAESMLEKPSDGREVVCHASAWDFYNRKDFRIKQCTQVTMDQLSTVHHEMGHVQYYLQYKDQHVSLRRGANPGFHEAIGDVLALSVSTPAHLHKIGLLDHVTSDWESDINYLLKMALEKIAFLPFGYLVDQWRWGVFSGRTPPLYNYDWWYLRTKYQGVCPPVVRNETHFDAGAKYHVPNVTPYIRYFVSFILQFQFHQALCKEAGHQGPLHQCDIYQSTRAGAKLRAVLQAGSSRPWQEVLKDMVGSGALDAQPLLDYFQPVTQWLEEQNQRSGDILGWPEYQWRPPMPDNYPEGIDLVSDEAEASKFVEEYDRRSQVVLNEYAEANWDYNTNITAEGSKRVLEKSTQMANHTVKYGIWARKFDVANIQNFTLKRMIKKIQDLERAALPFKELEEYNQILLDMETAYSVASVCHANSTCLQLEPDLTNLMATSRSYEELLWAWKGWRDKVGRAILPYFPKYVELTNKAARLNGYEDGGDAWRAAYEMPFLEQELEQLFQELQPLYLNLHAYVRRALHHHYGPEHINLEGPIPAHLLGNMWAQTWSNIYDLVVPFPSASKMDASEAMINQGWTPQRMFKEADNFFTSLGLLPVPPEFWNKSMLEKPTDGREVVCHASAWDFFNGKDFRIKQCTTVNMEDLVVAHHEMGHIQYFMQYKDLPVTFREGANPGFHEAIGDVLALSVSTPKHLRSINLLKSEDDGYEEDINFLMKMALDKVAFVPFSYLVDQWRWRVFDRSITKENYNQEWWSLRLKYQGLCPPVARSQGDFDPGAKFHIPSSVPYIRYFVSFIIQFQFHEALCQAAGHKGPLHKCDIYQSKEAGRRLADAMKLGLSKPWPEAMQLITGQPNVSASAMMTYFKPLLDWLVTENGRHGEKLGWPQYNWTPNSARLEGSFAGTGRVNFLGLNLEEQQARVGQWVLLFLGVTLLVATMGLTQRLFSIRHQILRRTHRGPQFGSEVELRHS
Method in brief: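 Fluorogenic substrate cleavage by 1 nM ACE, read at 320/405 nm after EDTA stop at ~30 min. Reactions at 25 °C, pH 7.5, in HEPES/NaCl/Brij-35 buffer; compounds tested at 12 concentrations in 5% DMSO.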

[4] = target: T3, Carboxypeptidase A (Bos taurus, UniProt P00730); experiment: Carboxypeptidase A activity assay; assay type: biochemical; settings: Ki class, compounds tested in 5% DMSO
T3 sequence (P00730 111-419): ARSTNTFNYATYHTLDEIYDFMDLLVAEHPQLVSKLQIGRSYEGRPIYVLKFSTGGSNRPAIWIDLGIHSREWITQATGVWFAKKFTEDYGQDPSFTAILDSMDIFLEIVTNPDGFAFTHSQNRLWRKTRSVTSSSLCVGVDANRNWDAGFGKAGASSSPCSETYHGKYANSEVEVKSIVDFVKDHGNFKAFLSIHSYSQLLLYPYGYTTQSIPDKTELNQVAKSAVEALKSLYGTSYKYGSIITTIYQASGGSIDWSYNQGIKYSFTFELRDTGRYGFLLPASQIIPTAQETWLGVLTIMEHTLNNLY
Method in brief: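 Ki obtained by correcting apparent Ki for substrate, Ki=Kiapp/(1+[S]/Km), from 12-concentration series. Enzyme activity read by absorbance at 328 nm with 5% DMSO present, EDTA stop.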

[5] = Ki class, compounds tested in 5% DMSO, 12 concentrations, read-out: Human ACE-2 Activity
[6] = Ki class, compounds tested in 5% DMSO, 12 compound concentrations, Ki=Kiapp/(1+[S]/Km), read-out: Human ACE-2 Activity
[7] = Table 3, very good ACE-2 inhibiting compounds, species not given, read-out: ACE-2 Activity, Ki

Structure (SMILES) | Ki ([2]; 12 concentrations) [nM] | Ki ([3]; 12 concentrations) [nM] | Ki ([4]; 12 concentrations) [nM] | Ki [1, 6] [nM] | Ki ([2]; 12 compound concentrations) [nM] | Ki [1, 7] [nM] | also measured
CCC(C)C(N[C@H](Cc1c[nH]cn1)C(=O)O)C(=O)O (stereo in doubt) [BE, 2-[1-Carboxy-2-(1H-imidazol-4-yl)-ethylamino]-3-methyl-pentanoic acid] | > 500 | 10000 to 50000 | > 50000 | – | – | – | Ki [1, 5]: > 500 nM
CC(C)C[C@H](N[C@@H](Cc1ccn(Cc2ccccc2)n1)C(=O)O)C(=O)O [IN, (S,S)-2-[2-(1-benzyl-1H-pyrazol-3-yl)-1-carboxy-ethylamino]-4-methyl pentanoic acid] | – | – | – | 100 to 500 | < 100 | – | –
O=C(O)C(Cc1ccccc1)N[C@@H](Cc1cnc[nH]1)C(=O)O (stereo partly drawn) [EQ, 2-(1-Carboxy-2-phenyl-ethylamino)-3-(1H-imidazol-4-yl)-propionicacid] | 100 to 500 | > 50000 | 10000 to 50000 | – | – | – | –
CC(C)CC(N[C@@H](Cc1csc(-c2ccccc2)n1)C(=O)O)C(=O)O (stereo partly drawn) [IL, 2-[1-Carboxy-2-(2-phenyl-thiazol-4-yl)-ethylamino]-4-methyl-pentanoic acid] | – | – | – | 100 to 500 | < 100 | 50 to 100 | –
O=C(O)C(Cc1ccc(O)cc1)N[C@@H](Cc1c[nH]cn1)C(=O)O (single isomer, unassigned) [DO, 2-[1-Carboxy-2-(4-hydroxy-phenyl)-ethylamino]-3-(1H-imidazol-4-yl)-propionicacid] | 100 to 500 | 10000 to 50000 | > 50000 | – | – | – | –
CCC(C)C(NC(Cc1cncn1Cc1ccccc1)C(=O)O)C(=O)O (single isomer, unassigned) [GD, 2-[2-(3-Benzyl-3H-imidazol-4-yl)-1-carboxy-ethylamino]-3-methyl-pentanoic acid] | > 500 | > 50000 | > 50000 | – | – | – | –
CC(C)CC(N[C@@H](Cc1c[nH]cn1)C(=O)O)C(=O)O (single isomer, unassigned) [BL, 2-[1-Carboxy-2-(1H-imidazol-4-yl)-ethylamino]4-methyl-pentanoic acid] | > 500 | 10000 to 50000 | > 50000 | – | – | – | –
COC(=O)[C@H](Cc1c[nH]cn1)NC(CC(C)C)C(=O)O (single isomer, unassigned) [CU, 2-[2-(1H-Imidazol-4-yl)-1-methoxycarbonyl-ethylamino]-4-methyl-pentanoic acid] | 100 to 500 | > 50000 | > 50000 | – | – | – | –
CC(C)CC(N[C@@H](Cc1cncn1Cc1ccc(F)cc1)C(=O)O)C(=O)O (single isomer, unassigned) [II, 2-[1-Carboxy-2-[3-(4-fluoro-benzyl)-3H-imidazol-4-yl]-ethylamino]4-methyl-pentanoic acid] | – | – | – | < 100 | < 100 | 50 to 100 | –
CCCCC(N[C@@H](Cc1c[nH]cn1)C(=O)O)C(=O)O (single isomer, unassigned) [EF, 2-[1-Carboxy-2-(1H-imidazol-4-yl)-ethylamino]hexanoic acid] | > 500 | 10000 to 50000 | > 50000 | – | – | – | –
CCCCC(N[C@@H](Cc1cncn1Cc1ccccc1)C(=O)O)C(=O)O (single isomer, unassigned) [FZ, 2-[2-(3-Benzyl-3H-imidazol-4-yl)-1-carboxy-ethylamino]-hexanoicacid] | > 500 | > 50000 | > 50000 | – | – | – | –
CC(C)CC(N[C@@H](Cc1cncn1Cc1ccc(C#N)cc1)C(=O)O)C(=O)O (single isomer, unassigned) [HA, 2-[1-Carboxy-2-[3-(4-cyano-benzyl)-3H-imidazol-4-yl]-ethylamino)4-methyl-pentanoic acid] | – | – | – | < 100 | – | 50 to 100 | Ki ([3]; 12 compound concentrations): 10000 to 50000 nM; Ki ([4]; 12 compound concentrations): 10000 to 50000 nM
CC(C)CCN[C@@H](Cc1c[nH]cn1)C(=O)O [DY, 3-(1H-Imidazol-4-yl)-2-(3-methyl-butylamino)-propionic acid] | – | > 50000 | > 50000 | – | – | – | Ki [1, 5]: > 500 nM
CC(C)CC(N[C@@H](Cc1cncn1COCc1ccccc1)C(N)=O)C(=O)O (single isomer, unassigned) [FC, 2-[2-(3-Benzyloxymethyl-3H-imidazol-4-yl)-1-carbamoyl-ethylamino]-4-methyl-pentanoic acid] | > 500 | > 50000 | > 50000 | – | – | – | –

The next lines start with results.

Ki ([2]; 12 concentrations) [nM] | Ki ([3]; 12 concentrations) [nM] | Ki ([4]; 12 concentrations) [nM] | Ki [1, 6] [nM] | Ki ([2]; 12 compound concentrations) [nM] | Ki [1, 7] [nM] | Structure (SMILES) | also measured
– | – | – | < 100 | < 100 | < 50 | CC(C)CC(N[C@@H](Cc1cncn1Cc1cccc(F)c1)C(=O)O)C(=O)O (single isomer, unassigned) [JQ, 2-[1-Carboxy-2-[3-(3-fluoro-benzyl)-3H-imidazol-4-yl]-ethylamino]4-methyl-pentanoic acid] | –
– | – | – | > 500 | < 100 | < 50 | CC(C)CC(N[C@@H](Cc1cncn1Cc1cccc(Cl)c1Cl)C(=O)O)C(=O)O (single isomer, unassigned) [IX, 2-[1-Carboxy-2-[3-(2,3-dichloro-benzyl)-3H-imidazol-4-yl]-ethylamino]4-methyl-pentanoic acid] | –
– | – | – | < 100 | < 100 | < 50 | CC(C)CC(N[C@@H](Cc1cncn1Cc1cccc(I)c1)C(=O)O)C(=O)O (single isomer, unassigned) [JO, 2-[1-Carboxy-2-[3-(3-iodobenzyl)-3H-imidazol-4-yl]-ethylamino]-4-methyl-pentanoic acid] | –
– | – | – | < 100 | < 100 | < 50 | CC(C)CC(N[C@@H](Cc1cncn1Cc1ccc2c(c1)OCO2)C(=O)O)C(=O)O (single isomer, unassigned) [JE] | –
– | – | – | < 100 | < 100 | < 50 | CC(C)CC(N[C@@H](Cc1cncn1Cc1cc(Cl)ccc1Cl)C(=O)O)C(=O)O (single isomer, unassigned) [JB, 2-[1-Carboxy-2-[3-(2,5-dichloro-benzyl)-3H-imidazol-4-yl]-ethylamino]4-methyl-pentanoic acid] | –
– | – | – | < 100 | < 100 | < 50 | CC(C)CC(N[C@@H](Cc1cncn1Cc1cccc(C(F)(F)F)c1)C(=O)O)C(=O)O (single isomer, unassigned) [IZ, 2-[1-Carboxy-2-[3-(3-trifluoromethyl-benzyl)-3H-imidazol-4-yl]-ethylamino]4-methyl-pentanoic acid] | –
– | – | – | < 100 | < 100 | < 50 | CC(C)CC(N[C@@H](Cc1cncn1CCC1CCCCC1)C(=O)O)C(=O)O (single isomer, unassigned) [JI, 2-[1-Carboxy-2-[3-(2-cyclohexyl-ethyl)-3H-imidazol-4-yl]-ethylamino]4-methyl-pentanoic acid] | –
– | – | – | < 100 | < 100 | – | CC(C)CC(N[C@@H](Cc1cncn1CCc1ccccc1)C(=O)O)C(=O)O (single isomer, unassigned) [JK, 2-[1-Carboxy-2-[3-phenethyl-3H-imidazol-4-yl)-ethylamino]-4-methyl-pentanoic acid] | –
